Where two headings read alike, the source gives them in different places. Numbered stars: 1 amine (or outer) side, 2 acyl side, 3 side chain; on linkers, the order of the positions; unused ones are H or OH. Bridge positions count the residues as written; N and C are the ends. Square brackets hold non-standard residues; d marks the D form. Peptide text beside a SMILES is read from it. X2 = O=C(O)CCCCCCCCCCCCCCCCCCC(=O)N[C@@H](CCCCNC(=O)CCOCCOCCNC(=O)CCOCCOCCNC(=O)CCC(=O)N(CCNC(=O)C[*:1])CCNC(=O)C[*:2])C(=O)O; X1 = O=C(O)CCCCCCCCCCCCCCCCC(=O)N[C@@H](CCCCNC(=O)CCOCCOCCNC(=O)CCOCCOCCNC(=O)CCC(=O)N(CCNC(=O)C[*:1])CCNC(=O)C[*:2])C(=O)O; Aib = CC(C)(N)C(=O)O
What was measured:
human GLP-1R = molecular target: T1, human GLP-1R (Homo sapiens, UniProt P43220); experiment: In vitro receptor activation reporter assay (CRE-Luc), HEK293-GLP-1R-CRE; assay type: cell-based
T1 construct: expressed in transfected cells
T1 sequence (P43220 24-463): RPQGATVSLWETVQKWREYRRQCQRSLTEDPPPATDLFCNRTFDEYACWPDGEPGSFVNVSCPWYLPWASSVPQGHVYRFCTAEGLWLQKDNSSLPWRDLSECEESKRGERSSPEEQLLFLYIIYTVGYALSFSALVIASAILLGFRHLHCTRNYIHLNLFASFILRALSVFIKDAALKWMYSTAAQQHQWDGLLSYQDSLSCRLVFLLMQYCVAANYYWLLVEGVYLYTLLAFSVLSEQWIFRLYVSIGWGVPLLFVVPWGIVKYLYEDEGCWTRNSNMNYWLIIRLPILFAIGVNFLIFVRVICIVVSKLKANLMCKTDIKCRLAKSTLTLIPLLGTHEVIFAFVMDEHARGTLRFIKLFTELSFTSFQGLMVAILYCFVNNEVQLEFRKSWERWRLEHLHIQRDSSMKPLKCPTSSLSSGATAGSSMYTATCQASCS
Protocol: (§1) The EC50 of each peptide was determined using GraphPad Prism 6 software (GraphPad, San Diego, CA).
HEK293 cells were infected with lentivirus encoding firefly luciferase gene under the control of cAMP responsive element (CRE) promoter (Qiagen, The Netherlands) and then were selected using 1 g/mL puromycin (Life Technologies, Carlsbad) for 1 week. The surviving cells (referred to as CRE-HEK293) were expanded and then transfected with a G418 selective mammalian expression plasmid encoding human GLP-1R. In brief, GLP-1R plasmid was transfected into CRE-HEK293 cells using Lipofectamine 2000 and selected with 400 g/mL Geneticin (Life Technologies, Carlsbad, CA). Single colony stable cell line overexpressing CRE-luciferase and GLP1R was then established for in vitro activity assay.

human GIPR = molecular target: T2, human GIPR (Homo sapiens, UniProt P48546); experiment: In vitro receptor activation reporter assay (CRE-Luc), HEK293-GIPR-CRE; assay type: cell-based
T2 construct: expressed in transfected cells
T2 sequence (P48546 22-466): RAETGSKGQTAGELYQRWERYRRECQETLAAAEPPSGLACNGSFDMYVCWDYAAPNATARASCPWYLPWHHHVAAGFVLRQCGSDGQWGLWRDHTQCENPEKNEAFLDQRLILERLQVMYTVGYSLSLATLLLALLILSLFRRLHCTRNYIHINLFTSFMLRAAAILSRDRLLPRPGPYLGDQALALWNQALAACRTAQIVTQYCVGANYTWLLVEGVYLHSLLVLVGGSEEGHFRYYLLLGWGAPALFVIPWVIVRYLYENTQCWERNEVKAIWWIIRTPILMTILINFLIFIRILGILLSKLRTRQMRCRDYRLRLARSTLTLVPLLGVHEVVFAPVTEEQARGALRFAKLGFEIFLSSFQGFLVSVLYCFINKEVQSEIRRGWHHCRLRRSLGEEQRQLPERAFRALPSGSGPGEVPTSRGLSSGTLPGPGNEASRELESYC
Description: HEK293 cells were infected with lentivirus encoding firefly luciferase gene under the control of cAMP responsive element (CRE) promoter (Qiagen, The Netherlands) and then were selected using 1 g mL^−1 puromycin (Life Technologies, Carlsbad) for 1 week. The surviving cells (referred to as CRE-HEK293) were expanded and then transfected with a G418 selective mammalian expression plasmid encoding human GLP-1R or GIPR. In brief, GLP-1R or GIPR plasmid was transfected into CRE-HEK293 cells using Lipofectamine 2000 and selected with 400 g mL^−1 Geneticin (Life Technologies, Carlsbad, CA). Single colony stable cell line overexpressing CRE-luciferase and GLP-1R or GIPR (HEK293-GLP-1R-CRE or HEK293-GIPR-CRE) was then established for in vitro activity assay.
as §1

[1] = unnumbered table (Table 10), average of runs, read-out: GIPR (nM) [EC50] average
[2] = unnumbered table (Table 10), run 02/19, read-out: GIPR (nM) [EC50] 02/19
[3] = unnumbered table (Table 10), run 03/26, read-out: GIPR (nM) [EC50] 03/26
[4] = Table 8, read-out: EC50 [nM] GLP1R
[5] = Table 8, read-out: EC50 [nM] GIPR

Compound	EC50 (human GLP-1R; unnumbered table (Table 10), average of runs, read-out: GLP1R (nM) [EC50] average) [nM]	EC50 (human GLP-1R; unnumbered table (Table 10), run 02/19, read-out: GLP1R (nM) [EC50] 02/19) [nM]	EC50 (human GLP-1R; unnumbered table (Table 10), run 3/25, read-out: GLP1R (nM) [EC50] 3/25) [nM]	EC50 (human GLP-1R; unnumbered table (Table 10), run 03/26, read-out: GLP1R (nM) [EC50] 03/26) [nM]	EC50 (human GIPR; [1]) [nM]	EC50 (human GIPR; [2]) [nM]	EC50 (human GIPR; [3]) [nM]	EC50 (human GLP-1R; [4]) [nM]	EC50 (human GIPR; [5]) [nM]	EC50 (human GIPR; unnumbered table (Table 10), run 03/25, read-out: GIPR (nM) [EC50] 03/25) [nM]
CC[C@H](C)[C@H](NC(=O)[C@H](CC(C)C)NC(=O)[C@H](Cc1c[nH]c2ccccc12)NC(=O)[C@@H]1CSCC(=O)NCCN(C(=O)CCC(=O)NCCOCCOCCC(=O)NCCOCCOCCC(=O)NCCCC[C@H](NC(=O)CCCCCCCCCCCCCCCCCCC(=O)O)C(=O)O)CCNC(=O)CSC[C@H](NC(=O)[C@H](CCCCN)NC(=O)[C@H](CC(=O)O)NC(=O)[C@H](CC(C)C)NC(=O)[C@H](Cc2ccc(O)cc2)NC(=O)[C@@H](NC(=O)[C@H](CO)NC(=O)[C@H](Cc2ccc(O)cc2)NC(=O)[C@H](CC(=O)O)NC(=O)[C@H](CC(N)=O)NC(=O)[C@@H](NC(=O)[C@H](Cc2ccc(O)cc2)NC(=O)[C@@H](NC(=O)CNC(=O)[C@H](CCC(=O)O)NC(=O)C(C)(C)NC(=O)[C@@H](N)Cc2ccc(O)cc2)[C@@H](C)O)[C@@H](C)O)[C@@H](C)CC)C(=O)N[C@@H](C)C(=O)N[C@@H](C)C(=O)NC(C)(C)C(=O)N[C@@H](CCC(=O)O)C(=O)N[C@@H](Cc2ccccc2)C(=O)N[C@@H](C(C)C)C(=O)N1)C(=O)N[C@@H](C)C(=O)NCC(=O)NCC(=O)N1CCC[C@H]1C(=O)N[C@@H](CO)C(=O)N[C@@H](CO)C(=O)NCC(=O)N[C@@H](C)C(=O)N1CCC[C@H]1C(=O)N1CCC[C@H]1C(=O)N1CCC[C@H]1C(=O)N[C@@H](CO)C(N)=O [6Y, 8N, 27I, C(17-24) - C20L5A, YAibEGT-YTNDY-SIYLD-KXAAAib-EFVXW-LIAGG-PSSGA-PPPS-NH2 (where each X is C)] (H-Y[Aib]EGTYTNDYSIYLDKCAA[Aib]EFVCWLIAGGPSSGAPPPS-NH2; linker 17-24 via X2)	0.08	0.06	0.11	0.07	2.88	2.48	3.29	–	–	–
CC[C@H](C)[C@H](NC(=O)[C@H](CC(C)C)NC(=O)[C@H](Cc1c[nH]c2ccccc12)NC(=O)[C@H](CC(N)=O)NC(=O)[C@@H](NC(=O)[C@H](Cc1ccccc1)NC(=O)[C@@H]1CSCC(=O)NCCN(C(=O)CCC(=O)NCCOCCOCCC(=O)NCCOCCOCCC(=O)NCCCC[C@H](NC(=O)CCCCCCCCCCCCCCCCCCC(=O)O)C(=O)O)CCNC(=O)CSC[C@H](NC(=O)[C@H](Cc2ccc(O)cc2)NC(=O)[C@@H](NC(=O)[C@H](CO)NC(=O)[C@@H](NC(=O)[C@H](CC(=O)O)NC(=O)[C@H](CO)NC(=O)[C@@H](NC(=O)[C@H](Cc2ccccc2)NC(=O)[C@@H](NC(=O)CNC(=O)[C@H](CCC(=O)O)NC(=O)C(C)(C)NC(=O)[C@@H](N)Cc2ccc(O)cc2)[C@@H](C)O)[C@@H](C)CC)C(C)C)[C@@H](C)CC)C(=O)N[C@@H](CC(=O)O)C(=O)N[C@@H](CCCCN)C(=O)N[C@@H](CCC(N)=O)C(=O)N[C@@H](C)C(=O)N[C@@H](C)C(=O)NC(C)(C)C(=O)N1)C(C)C)C(=O)N[C@@H](C)C(=O)NCC(=O)NCC(=O)N1CCC[C@H]1C(=O)N[C@@H](CO)C(=O)N[C@@H](CO)C(=O)NCC(=O)N[C@@H](C)C(=O)N1CCC[C@H]1C(=O)N1CCC[C@H]1C(=O)N1CCC[C@H]1C(=O)N[C@@H](CO)C(N)=O [7I, 10V, 27I, C(14-21) - C20L5A, YAibEGT-FISDV-SIYXD-KQAAAib-XFVNW-LIAGG-PSSGA-PPPS-NH2 (where each X is C)] (H-Y[Aib]EGTFISDVSIYCDKQAA[Aib]CFVNWLIAGGPSSGAPPPS-NH2; linker 14-21 via X2)	–	–	–	–	–	–	–	~13700	303	–
CC[C@H](C)[C@H](NC(=O)[C@H](CO)NC(=O)[C@H](Cc1ccc(O)cc1)NC(=O)[C@H](CC(=O)O)NC(=O)[C@H](CO)NC(=O)[C@@H](NC(=O)[C@H](Cc1ccccc1)NC(=O)[C@@H](NC(=O)CNC(=O)[C@H](CCC(=O)O)NC(=O)C(C)(C)NC(=O)[C@@H](N)Cc1ccc(O)cc1)[C@@H](C)O)[C@@H](C)O)C(=O)N[C@@H](Cc1ccc(O)cc1)C(=O)N[C@H]1CSCC(=O)NCCN(C(=O)CCC(=O)NCCOCCOCCC(=O)NCCOCCOCCC(=O)NCCCC[C@H](NC(=O)CCCCCCCCCCCCCCCCCCC(=O)O)C(=O)O)CCNC(=O)CSC[C@@H](C(=O)N[C@@H](Cc2ccccc2)C(=O)N[C@H](C(=O)N[C@@H](CC(N)=O)C(=O)N[C@@H](Cc2c[nH]c3ccccc23)C(=O)N[C@@H](CC(C)C)C(=O)N[C@@H](CC(C)C)C(=O)N[C@@H](C)C(=O)NCC(=O)NCC(=O)N2CCC[C@H]2C(=O)N[C@@H](CO)C(=O)N[C@@H](CO)C(=O)NCC(=O)N[C@@H](C)C(=O)N2CCC[C@H]2C(=O)N2CCC[C@H]2C(=O)N2CCC[C@H]2C(=O)N[C@@H](CO)C(N)=O)C(C)C)NC(=O)C(C)(C)NC(=O)[C@H](C)NC(=O)[C@H](C)NC(=O)[C@H](CCC(N)=O)NC(=O)[C@H](CCCCN)NC(=O)[C@H](CC(=O)O)NC1=O [C(14-21) - C20L5A, YAibEGT-FTSDY-SIYXD-KQAAAib-XFVNW-LLAGG-PSSGA-PPPS-NH2 (where each X is C)]	–	–	–	–	0.05	0.07	0.04	0.2	0.05	0.04
CC[C@H](C)[C@H](NC(=O)[C@H](CC(C)C)NC(=O)[C@H](Cc1c[nH]c2ccccc12)NC(=O)[C@H](CC(N)=O)NC(=O)[C@@H](NC(=O)[C@H](Cc1ccccc1)NC(=O)[C@@H]1CSCC(=O)NCCN(C(=O)CCC(=O)NCCOCCOCCC(=O)NCCOCCOCCC(=O)NCCCC[C@H](NC(=O)CCCCCCCCCCCCCCCCC(=O)O)C(=O)O)CCNC(=O)CSC[C@H](NC(=O)[C@H](Cc2ccc(O)cc2)NC(=O)[C@@H](NC(=O)[C@H](CO)NC(=O)[C@H](Cc2ccc(O)cc2)NC(=O)[C@H](CC(=O)O)NC(=O)[C@H](CO)NC(=O)[C@@H](NC(=O)[C@H](Cc2ccccc2)NC(=O)[C@@H](NC(=O)CNC(=O)[C@H](CCC(=O)O)NC(=O)C(C)(C)NC(=O)[C@@H](N)Cc2ccc(O)cc2)[C@@H](C)O)[C@@H](C)O)[C@@H](C)CC)C(=O)N[C@@H](CC(=O)O)C(=O)N[C@@H](CCCCN)C(=O)N[C@@H](CCC(N)=O)C(=O)N[C@@H](C)C(=O)N[C@@H](C)C(=O)NC(C)(C)C(=O)N1)C(C)C)C(=O)N[C@@H](C)C(=O)NCC(=O)NCC(=O)N1CCC[C@H]1C(=O)N[C@@H](CO)C(=O)N[C@@H](CO)C(=O)NCC(=O)N[C@@H](C)C(=O)N1CCC[C@H]1C(=O)N1CCC[C@H]1C(=O)N1CCC[C@H]1C(=O)N[C@@H](CO)C(N)=O [27I, C(14-21) - L5A, YAibEGT-FTSDY-SIYXD-KQAAAib-XFVNW-LIAGG-PSSGA-PPPS-NH2 (where each X is C)]	–	–	–	–	–	–	–	0.04	0.03	–
CC[C@H](C)[C@H](NC(=O)[C@H](CC(C)C)NC(=O)[C@H](Cc1c[nH]c2ccccc12)NC(=O)[C@H](CC(N)=O)NC(=O)[C@@H](NC(=O)[C@H](Cc1ccccc1)NC(=O)[C@@H]1CSCC(=O)NCCN(C(=O)CCC(=O)NCCOCCOCCC(=O)NCCOCCOCCC(=O)NCCCC[C@H](NC(=O)CCCCCCCCCCCCCCCCC(=O)O)C(=O)O)CCNC(=O)CSC[C@H](NC(=O)[C@H](Cc2ccc(O)cc2)NC(=O)[C@@H](NC(=O)[C@H](CO)NC(=O)[C@@H](NC(=O)[C@H](CC(=O)O)NC(=O)[C@H](CO)NC(=O)[C@@H](NC(=O)[C@H](Cc2ccccc2)NC(=O)[C@@H](NC(=O)CNC(=O)[C@H](CCC(=O)O)NC(=O)C(C)(C)NC(=O)[C@@H](N)Cc2ccc(O)cc2)[C@@H](C)O)[C@@H](C)CC)C(C)C)[C@@H](C)CC)C(=O)N[C@@H](CC(=O)O)C(=O)N[C@@H](CCCCN)C(=O)N[C@@H](CCC(N)=O)C(=O)N[C@@H](C)C(=O)N[C@@H](C)C(=O)NC(C)(C)C(=O)N1)C(C)C)C(=O)N[C@@H](C)C(=O)NCC(=O)NCC(=O)N1CCC[C@H]1C(=O)N[C@@H](CO)C(=O)N[C@@H](CO)C(=O)NCC(=O)N[C@@H](C)C(=O)N1CCC[C@H]1C(=O)N1CCC[C@H]1C(=O)N1CCC[C@H]1C(=O)N[C@@H](CO)C(N)=O [7I, 10V, 27I, C(14-21) - L5A, YAibEGT-FISDV-SIYXD-KQAAAib-XFVNW-LIAGG-PSSGA-PPPS-NH2 (where each X is C)] (H-Y[Aib]EGTFISDVSIYCDKQAA[Aib]CFVNWLIAGGPSSGAPPPS-NH2; linker 14-21 via X1)	–	–	–	–	–	–	–	83.9	12.5	–
